Measurements from the supplement of paper PMC11208160.

Assay: recombinant barcode read abundance after kanamycin selection (control-corrected) (log10(CPM+1)); higher = more efficient recombination; sequences stand for … in AGTGCAGAGAAAATCGGCCAGTTTTCTCTGCCTGCAGTCCGCATGCCGT…ATTTATGCAGCGGACTGCCTTTCTCCCAAAGTGATAAACCGGACAGTATCATGGACCGGTTTTCCCGGTAATCCGTATTTGCAAGGTTGGTTTCACT; site = the 11-nt target
Method in brief: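 Pooled oligos, each joining a target to an IS621 bridge RNA target-binding loop, were cloned and co-electroporated with a donor plasmid into E. coli. Selective plates carried chloramphenicol/ampicillin/kanamycin and 0.1 mM IPTG, while chloramphenicol/ampicillin LB agar served as control, with two replicates of each. Recombination efficiency rests on averaged, control-corrected counts per million of barcodes at recombinant junctions, shown as log10(CPM+1).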

Point of comparison: “GCGCGACGCTGGGTTCTAACCTGTTGCTTAG [GCGCGACCTAA_LTGcore_GC_RTGcore_CT] (site GCGCGACCTAA) (LTG core: GC, RTG core: CT)”, “recombinant barcode read abundance (log10)” value 0.0605. Against it:
- GAGCCCAGATGGGTTCTAACCTGTTGCCTTC [GAGCCCACTAG_LTGcore_GA_RTGcore_GA] (site GAGCCCACTAG) (LTG core: GA, RTG core: GA) — within 0.2 log units, 0.057
- GAGCCCATATGGGTTCTAACCTGTTGCCTAG [GAGCCCACTAG_LTGcore_TA_RTGcore_CT] (site GAGCCCACTAG) (LTG core: TA, RTG core: CT) — within 0.2 log units, 0.101
- GAGCCCATGTGGGTTCTAACCTGTTGCCTAG [GAGCCCACTAG_LTGcore_TG_RTGcore_CT] (site GAGCCCACTAG) (LTG core: TG, RTG core: CT) — within 0.2 log units, 0.0858
- GAGCCCATTTGGGTTCTAACCTGTTGCCTAG [GAGCCCACTAG_LTGcore_TT_RTGcore_CT] (site GAGCCCACTAG) (LTG core: TT, RTG core: CT) — within 0.2 log units, 0.0489
- GAGGCCTAATGGGTTCTAACCTGTTGCCAAG [GAGGCCTCTTG_LTGcore_AA_RTGcore_CT] (site GAGGCCTCTTG) (LTG core: AA, RTG core: CT) — within 0.2 log units, 0.153
- GAGGCCTAGTGGGTTCTAACCTGTTGCCAAG [GAGGCCTCTTG_LTGcore_AG_RTGcore_CT] (site GAGGCCTCTTG) (LTG core: AG, RTG core: CT) — within 0.2 log units, 0.106
- GAGGCCTAGTGGGTTCTAACCTGTTGCCACT [GAGGCCTCTTG_LTGcore_AG_RTGcore_AG] (site GAGGCCTCTTG) (LTG core: AG, RTG core: AG) — within 0.2 log units, 0.159
- GAGGCCTCGTGGGTTCTAACCTGTTGCCAAG [GAGGCCTCTTG_LTGcore_CG_RTGcore_CT] (site GAGGCCTCTTG) (LTG core: CG, RTG core: CT) — within 0.2 log units, 0.218
- GAGGCCTCTTGGGTTCTAACCTGTTGCCAAG [GAGGCCTCTTG_LTGcore_CT_RTGcore_CT] (site GAGGCCTCTTG) (LTG core: CT, RTG core: CT) — higher, 1.82
- GAGGCCTCTTGGGTTCTAACCTGTTGCCACA [GAGGCCTCTTG_LTGcore_CT_RTGcore_TG] (site GAGGCCTCTTG) (LTG core: CT, RTG core: TG) — higher, 0.453
- GAGGCCTCTTGGGTTCTAACCTGTTGCCACT [GAGGCCTCTTG_LTGcore_CT_RTGcore_AG] (site GAGGCCTCTTG) (LTG core: CT, RTG core: AG) — higher, 0.379
- GAGGCCTCTTGGGTTCTAACCTGTTGCCAGG [GAGGCCTCTTG_LTGcore_CT_RTGcore_CC] (site GAGGCCTCTTG) (LTG core: CT, RTG core: CC) — within 0.2 log units, 0.236
- GAGGCCTCTTGGGTTCTAACCTGTTGCCAGT [GAGGCCTCTTG_LTGcore_CT_RTGcore_AC] (site GAGGCCTCTTG) (LTG core: CT, RTG core: AC) — within 0.2 log units, 0.0794
- GAGGCCTCTTGGGTTCTAACCTGTTGCCATA [GAGGCCTCTTG_LTGcore_CT_RTGcore_TA] (site GAGGCCTCTTG) (LTG core: CT, RTG core: TA) — higher, 0.267
- GAGGCCTCTTGGGTTCTAACCTGTTGCCATC [GAGGCCTCTTG_LTGcore_CT_RTGcore_GA] (site GAGGCCTCTTG) (LTG core: CT, RTG core: GA) — within 0.2 log units, 0.252
- GAGGCCTGTTGGGTTCTAACCTGTTGCCAAC [GAGGCCTCTTG_LTGcore_GT_RTGcore_GT] (site GAGGCCTCTTG) (LTG core: GT, RTG core: GT) — within 0.2 log units, 0.104
- GAGGCCTTCTGGGTTCTAACCTGTTGCCAAG [GAGGCCTCTTG_LTGcore_TC_RTGcore_CT] (site GAGGCCTCTTG) (LTG core: TC, RTG core: CT) — within 0.2 log units, 0.0445
- GAGGCCTTCTGGGTTCTAACCTGTTGCCAGA [GAGGCCTCTTG_LTGcore_TC_RTGcore_TC] (site GAGGCCTCTTG) (LTG core: TC, RTG core: TC) — within 0.2 log units, 0.104
- GAGGCCTTGTGGGTTCTAACCTGTTGCCACA [GAGGCCTCTTG_LTGcore_TG_RTGcore_TG] (site GAGGCCTCTTG) (LTG core: TG, RTG core: TG) — within 0.2 log units, 0.014
- GAGGCCTTTTGGGTTCTAACCTGTTGCCAAA [GAGGCCTCTTG_LTGcore_TT_RTGcore_TT] (site GAGGCCTCTTG) (LTG core: TT, RTG core: TT) — within 0.2 log units, 0.0543
- GAGTCCAATTGGGTTCTAACCTGTTGCGTAT [GAGTCCACTAC_LTGcore_AT_RTGcore_AT] (site GAGTCCACTAC) (LTG core: AT, RTG core: AT) — within 0.2 log units, 0.0548
- GAGTCCACATGGGTTCTAACCTGTTGCGTTG [GAGTCCACTAC_LTGcore_CA_RTGcore_CA] (site GAGTCCACTAC) (LTG core: CA, RTG core: CA) — within 0.2 log units, 0.022
- GAGTCCACTTGGGTTCTAACCTGTTGCGTAA [GAGTCCACTAC_LTGcore_CT_RTGcore_TT] (site GAGTCCACTAC) (LTG core: CT, RTG core: TT) — within 0.2 log units, 0.027
- GAGTCCAGGTGGGTTCTAACCTGTTGCGTAG [GAGTCCACTAC_LTGcore_GG_RTGcore_CT] (site GAGTCCACTAC) (LTG core: GG, RTG core: CT) — higher, 0.689
- GAGTCCATGTGGGTTCTAACCTGTTGCGTCA [GAGTCCACTAC_LTGcore_TG_RTGcore_TG] (site GAGTCCACTAC) (LTG core: TG, RTG core: TG) — within 0.2 log units, 0.101
- GAGTCCTCATGGGTTCTAACCTGTTGCCTTG [GAGTCCTCTAG_LTGcore_CA_RTGcore_CA] (site GAGTCCTCTAG) (LTG core: CA, RTG core: CA) — within 0.2 log units, 0.185
- GAGTCCTCCTGGGTTCTAACCTGTTGCCTAG [GAGTCCTCTAG_LTGcore_CC_RTGcore_CT] (site GAGTCCTCTAG) (LTG core: CC, RTG core: CT) — within 0.2 log units, 0.191
- GAGTCCTCGTGGGTTCTAACCTGTTGCCTCG [GAGTCCTCTAG_LTGcore_CG_RTGcore_CG] (site GAGTCCTCTAG) (LTG core: CG, RTG core: CG) — within 0.2 log units, 0.0506
- GAGTCCTCTTGGGTTCTAACCTGTTGCCTAG [GAGTCCTCTAG_LTGcore_CT_RTGcore_CT] (site GAGTCCTCTAG) (LTG core: CT, RTG core: CT) — higher, 2.17
- GAGTCCTCTTGGGTTCTAACCTGTTGCCTGA [GAGTCCTCTAG_LTGcore_CT_RTGcore_TC] (site GAGTCCTCTAG) (LTG core: CT, RTG core: TC) — higher, 1.3
- GAGTCCTCTTGGGTTCTAACCTGTTGCCTTA [GAGTCCTCTAG_LTGcore_CT_RTGcore_TA] (site GAGTCCTCTAG) (LTG core: CT, RTG core: TA) — higher, 1.48
- GAGTCCTCTTGGGTTCTAACCTGTTGCCTTC [GAGTCCTCTAG_LTGcore_CT_RTGcore_GA] (site GAGTCCTCTAG) (LTG core: CT, RTG core: GA) — higher, 1.24
- GAGTCCTGCTGGGTTCTAACCTGTTGCCTGC [GAGTCCTCTAG_LTGcore_GC_RTGcore_GC] (site GAGTCCTCTAG) (LTG core: GC, RTG core: GC) — higher, 0.333
- GAGTCCTGTTGGGTTCTAACCTGTTGCCTAC [GAGTCCTCTAG_LTGcore_GT_RTGcore_GT] (site GAGTCCTCTAG) (LTG core: GT, RTG core: GT) — within 0.2 log units, 0.0554
- GAGTCCTTATGGGTTCTAACCTGTTGCCTAG [GAGTCCTCTAG_LTGcore_TA_RTGcore_CT] (site GAGTCCTCTAG) (LTG core: TA, RTG core: CT) — higher, 0.414
- GCGCGACACTGGGTTCTAACCTGTTGCTTGT [GCGCGACCTAA_LTGcore_AC_RTGcore_AC] (site GCGCGACCTAA) (LTG core: AC, RTG core: AC) — within 0.2 log units, 0.147
- GCGCGACCATGGGTTCTAACCTGTTGCTTAG [GCGCGACCTAA_LTGcore_CA_RTGcore_CT] (site GCGCGACCTAA) (LTG core: CA, RTG core: CT) — higher, 0.422
- GCGCGACCCTGGGTTCTAACCTGTTGCTTAG [GCGCGACCTAA_LTGcore_CC_RTGcore_CT] (site GCGCGACCTAA) (LTG core: CC, RTG core: CT) — higher, 0.907
- GCGCGACCTTGGGTTCTAACCTGTTGCTTGC [GCGCGACCTAA_LTGcore_CT_RTGcore_GC] (site GCGCGACCTAA) (LTG core: CT, RTG core: GC) — within 0.2 log units, 0.0896
- GCGCGACCTTGGGTTCTAACCTGTTGCTTGT [GCGCGACCTAA_LTGcore_CT_RTGcore_AC] (site GCGCGACCTAA) (LTG core: CT, RTG core: AC) — within 0.2 log units, 0.0798
- GCGCGACCTTGGGTTCTAACCTGTTGCTTTC [GCGCGACCTAA_LTGcore_CT_RTGcore_GA] (site GCGCGACCTAA) (LTG core: CT, RTG core: GA) — within 0.2 log units, 0.07
- GCGCGACGATGGGTTCTAACCTGTTGCTTAG [GCGCGACCTAA_LTGcore_GA_RTGcore_CT] (site GCGCGACCTAA) (LTG core: GA, RTG core: CT) — within 0.2 log units, 0.0201
- GCGCGACGGTGGGTTCTAACCTGTTGCTTAG [GCGCGACCTAA_LTGcore_GG_RTGcore_CT] (site GCGCGACCTAA) (LTG core: GG, RTG core: CT) — within 0.2 log units, 0.048
- GCGGGACAATGGGTTCTAACCTGTTGCCTTT [GCGGGACCTAG_LTGcore_AA_RTGcore_AA] (site GCGGGACCTAG) (LTG core: AA, RTG core: AA) — within 0.2 log units, 0.119
